In patent US10660789B2, “1,4-dihydropyridine derivatives with HSP modulating activity” (Richter Gedeon NYRT., priority 2011, dated 2020):
Structures can show the parent of a compound that is named as a salt.

Columns and labels:
[1] = system: APP mutant transgenic mice; experiment: Morris water maze, wild and APP mutant transgenic mice; assay type: in vivo, mouse; conditions: daily i.p. for 6 months, FIG. 6
Source text: The neuro- and memoryprotective effect of the compounds of invention was studied on wild and APP mutant transgenic mice. These mice express high levels of mutant beta-amyloid and, with increasing age, develop both substantial amyloid plaque load and memory deficits. Spatial memory disfunction [with the Morris water maze (MWM) behavioural task assay] and histological assays (cell density, astroglial response, tau-pathology, amyloid-histology and dendritic spine density) in the hippocampal (HC) region (key area for the memory-function) were performed.
The Morris water navigation task is a behavioral procedure widely used in behavioral neuroscience to study spatial learning and memory. The classic measure of learning is latency, which is the time it takes to find the platform after repeating the task daily.
16 adult female APP+ transgenic and 16 adult female wild type mice were the subjects of the experiment. The animals were housed in sterile mouse cages with a natural dark/light cycle, they had free access to food and water throughout the experiment. After arrival, the mice were daily gently handled for a week. […]
Spatial learning and memory were assessed in a circular pool (diameter: 130 cm, height: 60 cm), filled with water (23±1° C.) and made opaque with milk. […]
The data were recorded and evaluated automatically by using a video tracking system. […]

Hsp27 = experiment: Other in vitro effects, Hsp27 (Table 3); assay type: cell-based; design: key: +: co-inducing activity; −: silencing activity; 0: with the experimental methods applied no other HSP modulating effects could be identified
Procedure: Reporter plasmids, containing the Hsp70 and/or Hsp25 promoter conjugated to either YFP or GFP (yellow or green fluorescent protein), were stably transfected into the cells and the expression of YFP or GFP was followed by flow cytometry. Cells were either kept at 37° C. or exposed to heat shock at 42° C. for 1 hour followed by a 16 hour recovery period at 37° C. in the presence or absence of different concentrations of the test compound. After recovery the expression of YFP or GFP which is in straight correlation with the promoter activity of Hsp70 or Hsp27 genes was followed by measuring the fluorescence intensity of the cells by flow cytometry. Fluorescence intensity is in straight correlation with the amount of fluorescent protein (GFP or YFP) produced under the control of hsp promoter. The mean fluorescence intensity of YFP or GFP produced is shown as “Hsp promoter activity”.

SKH-1 hairless mice = experiment: UVB induced skin edema in SKH-1 hairless mice; assay type: in vivo, mouse
Procedure: To evaluate the effects of systemic administration of Ex. 23 on UVB induced edema 16 SKH-1 hairless mice were divided into two groups of 8 animals each. Group 1 mice (Control) were exposed to 230 mJ/cm^2 UVB consecutively for 2 days (a total cumulative UVB dose of 460 mJ/cm^2), which evoked edema as described by Athar et al. (Tox. Appl. Pharmacol. 195: 370-378, 2004). Group 2 mice received Ex 23. (10 mg/kg) intraperitoneally 30 min before the first UV treatment. The administration of the compound Ex. 23 was repeated 24 and 48 hours later. UVB-induced skin edema was monitored by measuring the increase in dorsal skin thickness using an ultrasound skin scanner (22 MHz).

[2] = system: APP mutant transgenic mice; experiment: Hippocampal histology after Morris water maze (cresyl violet, tau immunohistochemistry, Golgi staining); assay type: in vivo, mouse
Procedure: After the Morris water maze task the animals were deeply anesthetized, and transcardialy perfused with 10 ml 4° C. phosphate-buffered saline solution (PBS), followed by 30 ml of 4° C. paraformaldehyde solution (4% in phosphate buffer, pH 7.4). The brains were removed and postfixed for 24 h in the same fixative (4° C.) and subsequently cryoprotected in 30% sucrose solution for 72 h (4° C.). Brains were cut on a cryostat in 30 μm hippocampal coronal sections, and the slices were collected and stored at 4° C. in PBS for free floating immunohistochemistry.
Cresyl violet staining (Nissl staining) is used for neuronal tissue; the stain binds to the acidic components of the neuronal cytoplasm, showing the number of functioning neurons. Slides were stained into the filtered 1% crezyl violet solution for 5 min. and were dehydrated in 50% 70%, 95%, 2×100% ethanol for 1 minute each. After that slides were placed in xylene for another 10 minutes, and coversliped.
Neurofibrillary tangles (NTFs) are intraneuronal aggregates; these are abnormal accumulations associated with neurodegenerative diseases. To visualize the presence of these structures, we used for immunostaining human PHF-tau MAb(clone AT100) primer antibody at 1:800 dilution in PBS (pH 7.4).
The methodological steps in all three immunohistological techniques were the same. After quenching of endogenous peroxidase activity and a blocking step, the sections were incubated overnight at 4° C. with the primary antibody in the presence of 20% goat serum and Triton X-100 0.2%. On the following day, the sections were washed in PBS and incubated for 1 h at room temperature with the secondary biotinylated goat anti-mouse antibody (Vector Laboratories, Burlingame, Calif., USA, 1:400). […]
Dendritic spines change their density after a CNS injury, to visualize this effect, we made Golgi staining. […] The slides were analyzed with confocal light microscopy, we counted dendritic spines 100 μm tong on hippocampal pyramidal cells, and start point was 100 μm farther from the stoma. […]

## COC(=O)C1=C(CCN(C)C)N(C)C(CCN(C)C)=C(C(=O)OC)C1c1ccc(C(F)(F)F)cc1 [Example 23, Dimethyl 4-(4-trifuoromethylphenyl)-2,6-bis-(2-dimethylaminoethyl)-1-methyl-1,4-dihydropyridine-3,5-dicarboxylate dihydrochloride]
[1]
  spatial memory, time to find the hidden platform in Morris water maze: enhances the ability of both the wild type and the memory deficit mutant mice to find the hidden platform
Hsp27
  Other in vitro effects: Hsp27: Hsp27 0
SKH-1 hairless mice; 10 mg/kg i.p. 30 min before first UV, repeated 24 and 48 hours later, FIG. 7
  UVB induced skin edema (increase in skin thickness): substantially protected against edema formation
SKH-1 hairless mice; model in which efficacy was shown
  In vivo efficacy: UVB protection
[2]; hippocampal pyramidal cells
  Golgi staining, dendritic spine density: the spine density was the highest in the APP mutant compound of Ex. 23 treated group
[2]; hippocampus, APP mutant mice
  tau-immunohistochemistry: could inhibit the taupathology
[2]; hippocampus, versus negative control group
  cresyl-violet staining, alive neurons: more alive neurons
